Results on one compound are retold here after patent US20130109714A1, “NEURODEGENERATIVE DISEASE THERAPEUTIC AGENT” (National University Corporation Hokkaido University, priority 2010, published 2013).

Experiment [1] relates to primary nerve cells of the rat ventral midbrain. Description: H2O2-induced cell death in primary nerve cells, MTT assay. It counts as cell-based. Conditions: 1 μM compound for 20 h, then 200 μM H2O2 for 3 h. On the procedure:
From germinal cells of a rat at 17-19 days pregnant, primary nerve cells of the rat ventral midbrain were prepared. To evaluate presence of dopamine-producing neurons in a cell culture, the cell culture was immunostained with anti-NeuN antibody and anti-TH antibody to identify each of whole neurons and dopamine-producing neurons, and cell nuclei were stained with DAPI.
Therefore, it was clarified that No. 23 provides a resistance against nerve cell death induced by oxidative stress.

For experiment [2], the system named is cerebral stroke model rat. Conditions: in vivo.
The test system of experiment [3] is mouse injected with 6-OHDA to the unilateral (left) midbrain. Description: 6-OHDA Parkinson's disease model, methamphetamine-induced rotational behavior. Format: in vivo. The following applies: administered together with methamphetamine, up to 7 days after administration. As for the experimental part: To evaluate effects of a DJ-1 bound compound on Parkinson's disease in vivo, 6-OHDA was stereotactically injected to the unilateral (left) midbrain of a mouse. Then, the DJ-1 bound compound (No. 23) was administered together with methamphetamine. Here, administration of methamphetamine to an animal induces ipsilateral movement relative to the injection site. Accordingly, by the administration of methamphetamine to a mouse, a rotational behavior is observed.

With `COc1cc(C(=O)Nc2ccc(-c3cn4cccc(C)c4n3)cc2)cc(OC)c1OC` [No. 23], the “cell death caused by hydrogen peroxide in primary nerve cells (FIG. 12)” value in experiment [1] is “no cell death was observed”. Besides, the “cell death in brain, TTC staining, infarct area and volume (FIGS. 4-7)” value in experiment [2] was “significantly suppresses cell death”. Moreover, the “rotational behavior, number of rotations (FIGS. 15 and 16)” value in experiment [3] was “significantly suppressed”.
